A short description of series [1]: physchem. As to conditions: octanol/water, pH 7.4.
A short description of series [2]: Kinetic solubility of the compound in phosphate buffer at pH 6.5 by nephelometry analysis. Format: physicochemical. The note with it: read-out: Kinetic_solubility.
Series [3] is described as follows: Kinetic solubility of the compound in 0.01M HCl at pH 2 by nephelometry analysis. Format: physicochemical. As to conditions: read-out: Kinetic_solubility.
Series [4] deals with Plasma. Description: Average plasma concentration in Swiss mouse at 30 mg/kg, po after up to 8 hrs. The series is classed as ADME, organism-based. The arrangement: dose 30 mg/kg, route oral. The note with it: in vivo.
Series [5] is described as follows: Plasma concentration in Swiss mouse at 30 mg/kg, po after 0.5 hrs. The series is classed as ADME, organism-based. The arrangement: dose 30 mg/kg, route oral.
Series [6] can be described thus: Plasma concentration in Swiss mouse at 30 mg/kg, po after 8 hrs. The series is classed as ADME, organism-based. The arrangement: dose 30 mg/kg, route oral.
Series [7] is described as follows: Plasma concentration in Swiss mouse at 30 mg/kg, po after 24 hrs. Also noted: dose 30 mg/kg, route oral. The series is classed as ADME, organism-based.
Series [8] relates to Plasma. The series can be described thus: Average plasma concentration in Swiss mouse at 30 mg/kg, po after up to 24 hrs. The series is classed as ADME, organism-based. Also noted: dose 30 mg/kg, route oral. As to conditions: in vivo.

This is an account of results in ChEMBL document CHEMBL2177020, “Structure-activity relationship studies of orally active antimalarial 3,5-substituted 2-aminopyridines” (J Med Chem, 2012).

≈ marks a conversion by molar mass, not a printed value. A value given as a limit tells only on which side of the number the result lay.

For orientation: logD means the decadic logarithm of the distribution of all forms, ionised or not, between an organic phase and buffer at a given pH. Read a low logD as a more hydrophilic compound. Take `CN1CCN(C(=O)c2ccc(-c3cnc(N)c(-c4ccc(C(F)(F)F)cc4)c3)cc2)CC1`: in series [1], the logD was found to be 3.9. Moreover, the results for the solubility kinetic in series [2] and in series [3] were 25 µg/mL (≈ 56.8 µM) and greater than 100 µg/mL, respectively.
Compound `Nc1ncc(-c2ccc(C(=O)N3CCNCC3)cc2)cc1-c1ccc(C(F)(F)F)nc1` registered a logD in series [1] of 2.4. In addition, the solubility kinetic was 50 µg/mL (≈ 117 µM) in series [2] and greater than 100 µg/mL in series [3].
In series [1], `Nc1ncc(-c2ccc(C(=O)N3CCNCC3)cc2)cc1-c1ccc(C(F)(F)F)cc1` had a logD of 3.3. Moreover, the solubility kinetic is 25 µg/mL (≈ 58.6 µM) in series [2] and greater than 100 µg/mL in series [3].
For `COc1ccc(-c2cc(-c3ccc(-c4nnc(C)o4)cc3)cnc2N)cn1`, in that order: 2.6, 12.5 µg/mL (≈ 34.8 µM) and greater than 100 µg/mL.
In the same order, the values of `COc1ccc(-c2cc(-c3ccc4nccn4c3)cnc2N)cn1` are 2.4, 12.5 µg/mL (≈ 39.4 µM) and greater than 100 µg/mL.
For `COc1ccc(-c2cc(-c3ccc4cnn(C)c4c3)cnc2N)cn1`, in that order: 3, 6.3 µg/mL (≈ 19 µM) and greater than 100 µg/mL.
`COc1ccc(-c2cc(-c3ccc4ncccc4c3)cnc2N)cn1` registered a logD in series [1] of 2.9. Also, the figures for the solubility kinetic in series [2] and in series [3] were 6.3 µg/mL (≈ 19.2 µM) and greater than 100 µg/mL, respectively.
Take `COc1ccc(-c2cc(-c3ccc(C(=O)O)cc3)cnc2N)cn1`: the logD in series [1] was 0.8. Further, the solubility kinetic came out at 6.3 µg/mL (≈ 19.6 µM) in series [2] and 12.5 µg/mL (≈ 38.9 µM) in series [3].
Consider `COc1ccc(-c2cc(-c3ccc(C(N)=O)cc3)cnc2N)cn1`, for which the Cave came to 8200 nM in series [4] and 2400 nM in series [8]. In series [5], this compound yielded a concentration at 0.5 h of 10600 nM. In series [6], this compound showed a concentration at 8 h of 1300 nM. This compound also displayed a logD in series [1] of 1.7. In series [7], this compound showed a concentration at 24 h of 10 nM. Besides, the results for the solubility kinetic in series [2] and in series [3] were 12.5 µg/mL (≈ 39 µM) and greater than 100 µg/mL, respectively.
As for `COc1ccc(-c2cc(-c3cccc(C(N)=O)c3)cnc2N)cn1`, the logD in series [1] was found to be 1.7. The solubility kinetic in series [2] was 12.5 µg/mL (≈ 39 µM); in series [3], greater than 100 µg/mL.
Turning to `COc1ccc(-c2cc(-c3ccc(C(=O)N(C)C)cc3)cnc2N)cn1`, in series [4], the Cave came out at 25100 nM. In addition, the concentration at 0.5 h in series [5] turned out to be 30800 nM. The compound further came in with a concentration at 8 h in series [6] of 6400 nM. This compound came in with a logD in series [1] of 2.1. This compound also had a concentration at 24 h in series [7] of less than 1 nM. The solubility kinetic in series [2] and in series [3] was greater than 100 µg/mL throughout.
With `CNC(=O)c1ccc(-c2cnc(N)c(-c3ccc(OC)nc3)c2)cc1`, the logD in series [1] was found to be 1.8. For the same compound, the solubility kinetic in series [2] and in series [3] was 50 µg/mL (≈ 150 µM) in each case.
For `COc1ccc(-c2cc(-c3ccc(C(=O)NCCCO)cc3)cnc2N)cn1`, the solubility kinetic is 12.5 µg/mL (≈ 33 µM) in series [2] and greater than 100 µg/mL in series [3].
`COc1ccc(-c2cc(-c3ccc(C(=O)NCCN4CCOCC4)cc3)cnc2N)cn1`: the logD in series [1] is 1.9. The solubility kinetic in series [2] and in series [3] was greater than 100 µg/mL in each case.
In series [1], `COc1ccc(-c2cc(-c3ccc(C(=O)NCCN4CCCC4)cc3)cnc2N)cn1` came in with a logD of 2.5. Further, the solubility kinetic in series [2] and in series [3] was greater than 100 µg/mL throughout.
As to `COc1ccc(-c2cc(-c3ccc(C(=O)N4CCN(C)CC4)cc3)cnc2N)cn1`, the logD in series [1] is 2. In addition, the solubility kinetic in series [2] and in series [3] was greater than 100 µg/mL throughout.
In series [4], `COc1ccc(-c2cc(-c3ccc(C(=O)N4CCOCC4)cc3)cnc2N)cn1` displayed a Cave of 7800 nM. Besides, in series [5], the concentration at 0.5 h turned out to be 10300 nM. The compound also gave a concentration at 8 h in series [6] of 800 nM. In addition, the logD in series [1] is 2. Besides, the solubility kinetic in series [2] and in series [3] was 25 µg/mL (≈ 64 µM) throughout.
`Nc1ncc(-c2ccc(C(=O)N3CCOCC3)cc2)cc1-c1ccc(C(F)(F)F)nc1`: the Cave in series [4] turned out to be 3400 nM. Also, in series [5], the concentration at 0.5 h was determined as 4110 nM. In series [6], the concentration at 8 h turned out to be 840 nM. The compound further gave a logD in series [1] of 2.4. Besides, the solubility kinetic is 25 µg/mL (≈ 58.4 µM) in series [2] and greater than 100 µg/mL in series [3].
Take `Nc1ncc(-c2ccc(C(=O)N3CCOCC3)cc2)cc1-c1ccc(C(F)(F)F)cc1`: the Cave in series [4] turned out to be 200 nM; in series [8] it was 100 nM. Moreover, the concentration at 0.5 h in series [5] amounted to 300 nM. Moreover, the concentration at 8 h in series [6] came to 50 nM. The compound also gave a logD in series [1] of 3.1. This compound returned a concentration at 24 h in series [7] of 1 nM. For the same compound, the solubility kinetic was 6.3 µg/mL (≈ 14.7 µM) in series [2] and greater than 100 µg/mL in series [3].
Take `CN1CCN(C(=O)c2ccc(-c3cnc(N)c(-c4ccc(C(F)(F)F)nc4)c3)cc2)CC1`: the logD in series [1] was determined as 2.9. Further, the solubility kinetic in series [2] and in series [3] was greater than 100 µg/mL in each case.
In turn, `COc1ccc(-c2cc(-c3cccc(S(C)(=O)=O)c3)cnc2N)cn1` showed a logD in series [1] of 2.3. For the same compound, the solubility kinetic in series [2] was 25 µg/mL (≈ 70.3 µM); in series [3], greater than 100 µg/mL.
For `COc1ccc(-c2cc(-c3ccc(S(=O)(=O)N(C)C)cc3)cnc2N)cn1`, in that order: 2.8, 6.3 µg/mL (≈ 16.4 µM) and greater than 100 µg/mL.
In series [1], `CNS(=O)(=O)c1ccc(-c2cnc(N)c(-c3ccc(OC)nc3)c2)cc1` had a logD of 2.2. Also, the figures for the solubility kinetic in series [2] and in series [3] were 12.5 µg/mL (≈ 33.7 µM) and greater than 100 µg/mL, respectively.
The compound `COc1ccc(-c2cc(-c3ccc(S(N)(=O)=O)cc3)cnc2N)cn1` gave a pH-dependent lipophilicity (logD) in series [1] of 1.8. Further, the solubility kinetic in series [2] is 12.5 µg/mL (≈ 35.1 µM); in series [3], greater than 100 µg/mL.
For `COc1ccc(-c2cc(-c3ccc(S(=O)(=O)NC4CC4)cc3)cnc2N)cn1`, in that order: 2.7, 6.3 µg/mL (≈ 15.9 µM) and greater than 100 µg/mL.
As for `COc1ccc(-c2cc(-c3ccc(S(=O)(=O)N4CCOCC4)cc3)cnc2N)cn1`, the logD in series [1] came out at 2.7. In addition, the values for the solubility kinetic in series [2] and in series [3] were 6.3 µg/mL (≈ 14.8 µM) and greater than 100 µg/mL, respectively.
In the case of `COc1ccc(-c2cc(-c3ccc(S(=O)(=O)N4CCN(C)CC4)cc3)cnc2N)cn1`, the logD in series [1] is 2.7. In addition, the solubility kinetic in series [2] is 25 µg/mL (≈ 56.9 µM); in series [3], greater than 100 µg/mL.
In the same order, the values of `COc1ccc(-c2cc(-c3ccc(NS(C)(=O)=O)cc3)cnc2N)cn1` are 2.2, 25 µg/mL (≈ 67.5 µM) and greater than 100 µg/mL.
For `COc1ccc(-c2cc(-c3ccc(S(C)(=O)=O)c(F)c3)cnc2N)cn1`, in that order: 2.5, 6.3 µg/mL (≈ 16.9 µM) and greater than 100 µg/mL.
The compound `COc1ccc(-c2cc(-c3ccc(S(C)(=O)=O)cc3C(F)(F)F)cnc2N)cn1` displayed a logD in series [1] of 2.7. The solubility kinetic in series [2] was 12.5 µg/mL (≈ 29.5 µM); in series [3] it was greater than 100 µg/mL.
In the same order, the values of `COc1ccc(-c2cc(-c3ccc(OC(F)(F)F)cc3)cnc2N)cn1` are 4.3, 1.6 µg/mL (≈ 4.43 µM) and greater than 100 µg/mL.
In the case of `COc1ccc(-c2cc(-c3ccc(C(F)(F)F)cc3)cnc2N)cn1`, the logD in series [1] was determined as 4.2. Further, the solubility kinetic in series [2] was 1.6 µg/mL (≈ 4.63 µM); in series [3], greater than 100 µg/mL.
In the same order, the values of `COc1ccc(-c2cnc(N)c(-c3ccc(OC)nc3)c2)cn1` are 2.8, 25 µg/mL (≈ 81.1 µM) and greater than 100 µg/mL.
For `COc1ccc(-c2cc(-c3ccc(-n4cncn4)cc3)cnc2N)cn1`, in that order: 2.4, 6.3 µg/mL (≈ 18.3 µM) and greater than 100 µg/mL.
Consider `COc1ccc(-c2cc(-c3ccc(-n4cccn4)cc3)cnc2N)cn1`, for which the pH-dependent lipophilicity (logD) in series [1] is 3.1. Moreover, the solubility kinetic in series [2] was 3.1 µg/mL (≈ 9.03 µM); in series [3], greater than 100 µg/mL.
